Results taken from patent publication US10757944B2, “Ozone treatment for elimination of pathogens” (priority 2016, dated 2020).
Values joined by “and” are separate entries in the source; they are usually repeats but may differ in a detail not shown here. Equal values may be shown once.

Test system: Listeria monocytogenes
Test: Gaseous ozone treatment of Cannabis inoculated with Listeria, microbial count
Format: cell-based
Settings: for kill of bacterial pathogen (in words): 20 minutes
Protocol: Cannabis plants were individually contaminated with Escherichia Coli, Salmonella enterica sv typhimurium, Listeria monocytogenes and Candida albicans then exposed to gaseous ozone for 20 minutes at 100 ppm and 200 ppm.
Pure cultures of Escherichia coli and Listeria monocytogenes provided by the American Type Culture Collection (ATCC) were grown in selective media broths. The Candida albicans provided by ATCC was grown on potato dextrose agar, and after significant growth was achieved, the colonies were transferred and suspended in Butterfield's buffer. After significant turbidity in each broth of pathogens was observed, they, along with Butterfield's buffer with the suspended Candida albicans, were used to inoculate individual Cannabis samples. This process created four individual populations of Cannabis with each population being contaminated with one of the four organisms grown. After inoculating the samples they were allowed to dry overnight by placing them out in the open at room temperature. Each population of Cannabis was then divided into smaller individual 2-4 gram samples which were used in the tests. One test consisted of placing nearly half of the smaller samples into an ozone gas chamber for 20 minutes at an approximate ozone concentration of 100 ppm. The remaining samples were set aside to be used as controls.
Three samples for each organism were tested at each of the concentrations. The control samples were placed into the same chamber for 20 minutes with an ozone concentration of 0 ppm. All samples were then analyzed for their microbial counts by first generating serial dilution using Butterfield's buffer as the diluent for each sample then individually plating the resultant dilutions onto selective media appropriate for the organism being analyzed. After the required incubation temperatures and times were completed, the organisms on the plates were counted. For each set of dilutions of a given sample and starting at the plate representing the lowest dilution ratio, the first plate that was countable was counted and the result was recorded.
Testing occurred over two days. The first day involved testing one sample of Cannabis for each organism at an ozone concentration of 100 ppm and another test of only Listeria at 50 ppm. Additional testing involving subsequent trials for each organism at ozone concentrations of 100 ppm and 200 ppm were conducted on the second day of testing.
The ozone concentration in the ozone chamber was kept at a range approximating the desired 100 ppm and 200 ppm concentrations. For instance, when the desired concentration was 100 ppm, the actual range of concentrations was 98 ppm to 106 ppm, and when the desired concentration was 200 ppm, the actual range of concentration was 198 ppm to 204 ppm. While the samples were being placed into the chamber ozone gas was lost.

O=[O+][O-] [ozone]
difference between the control and the treated sample (in words) (50 ppm ozone, 20 min, first day): no statistically significant difference | kill of bacterial pathogen (in words) (100 ppm ozone, compared with 200 ppm): lesser kill rate | kill of bacterial pathogen (in words) (200 ppm ozone): Significant kills | Microbial Count (first day, target ozone 50 ppm (actual 46-52 ppm), 20 min, control (0 ppm) 7.0 * 10^2): 2.6 * 10^2 cfu/g | Microbial Count (first day, target ozone 100 ppm (actual 95-102 ppm), 20 min, control (0 ppm) 1.9 * 10^7): 4.8 * 10^5 cfu/g | Microbial Count (second day, ozone 100 ppm (98-106 ppm), 20 min, Trials 2-3, control 2.0 * 10^4): 2.0 * 10^3 cfu/g and 1.0 * 10^3 cfu/g
